# Data from US20060069132A1, “Azolecarboxamide herbicides” (priority 2004, published 2006).
# Where two headings read alike, the source gives them in different places.
# Legend:
# redroot pigweed = experiment: Test A pre-/postemergence herbicide test; type: in vivo, Amaranthus retroflexus; conditions: for pest or weed control at 500 g/ha / pest or weed control at 2000 g/ha: Amaranthus retroflexus, 240 h
# In short: (§1)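 Both application timings were run together: directed soil spray over freshly planted seeds in sandy loam, and runoff spray onto 2–10 cm seedlings. Evaluation after ~10 days in greenhouse used a 0–100 visual scale versus untreated controls.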
# Surinam grass = experiment: Test C pre-/postemergence herbicide test; type: in vivo, Urochloa decumbens; conditions: for Surinam Grass plant response rating: 500 g ai/ha
# In short: (§2)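 Emerged plants at the 1- to 4-leaf stage (2–18 cm), or freshly planted seeds, received test chemicals in a non-phytotoxic solvent mixture with surfactant. Response was visually scored against controls after 12 to 14 days in the greenhouse, on a 0 (no effect) to 100 (complete control) scale.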
# woolly cupgrass = experiment: Test C pre-/postemergence herbicide test; type: in vivo, Eriochloa villosa; conditions: for Cupgrass, Woolly plant response rating: 500 g ai/ha
# In short: as §2
# giant foxtail = experiment: Test A pre-/postemergence herbicide test; type: in vivo, Setaria faberi; conditions: for pest or weed control at 500 g/ha / pest or weed control at 2000 g/ha: Setaria faberi, 240 h
# In short: as §1
# morningglory = experiment: Test C pre-/postemergence herbicide test; type: in vivo, Ipomoea coccinea; set-up: key to Plant response rating, Morningglory: 0 = no effect, 100 = complete control; conditions: for Morningglory plant response rating: 500 g ai/ha
# In short: as §2
# barnyardgrass = experiment: Test A pre-/postemergence herbicide test; type: in vivo, Echinochloa crus-galli; conditions: for pest or weed control at 500 g/ha / pest or weed control at 2000 g/ha: Echinochloa crus-galli, 240 h
# In short: as §1
# johnsongrass = experiment: Test C pre-/postemergence herbicide test; type: in vivo, Sorghum halepense; conditions: for Johnsongrass plant response rating: 500 g ai/ha
# In short: as §2
# bermudagrass = experiment: Test C pre-/postemergence herbicide test; type: in vivo, Cynodon dactylon; conditions: for Bermudagrass plant response rating: Preemergence
# In short: as §2
# large crabgrass = experiment: Test A pre-/postemergence herbicide test; type: in vivo, Digitaria sanguinalis; conditions: for pest or weed control at 500 g/ha / pest or weed control at 2000 g/ha: Digitaria sanguinalis, 240 h
# In short: as §1
# [1] = Postemergence, 500 g ai/ha, 0 to 100 scale, 0 no effect, 100 complete control
# [2] = Postemergence, 2000 g ai/ha, 0 to 100 scale, 0 no effect, 100 complete control
# [3] = Preemergence, 2000 g ai/ha, visual rating, 0 to 100 scale (0 no effect, 100 complete control)
# [4] = preemergence, 500 g ai/ha, visual injury, 0 to 100 scale (0 no effect, 100 complete control)
# [5] = 125 g ai/ha, scale 0 (no effect) to 100 (complete control), visual, 12 to 14 days, preemergence
# [6] = Preemergence, scale 0 to 100, 0 no effect, 100 complete control
# [7] = 250 g ai/ha, scale 0 to 100 (0 no effect, 100 complete control), visual, 12 to 14 days, preemergence
# [8] = Preemergence, 500 g ai/ha, visual rating, 0 to 100 scale (0 no effect, 100 complete control)
# [9] = 500 g ai/ha, scale 0 to 100, 0 no effect, 100 complete control
# [10] = 62 g ai/ha, preemergence, scale 0 to 100
compound,measurement,setting,value
"CCn1nc(C(C)(C)C)cc1C(=O)Nc1cccc(C(=O)OCCF)c1 [Compound 82, 2-fluoroethyl 3-[[[3-(1,1-dimethylethyl)-1-ethyl-1H-pyrazol-5-yl]-carbonyl]amino]benzoate]",pest or weed control at 500 g/ha,"redroot pigweed; post-emergence, Postemergence, 500 g ai/ha, 0 to 100 scale, 0 no effect, 100 complete control, read-out: Plant response rating, Pigweed",50%
same,pest or weed control at 2000 g/ha,"redroot pigweed; post-emergence, Postemergence, 2000 g ai/ha, 0 to 100 scale, 0 no effect, 100 complete control, read-out: Plant response rating, Pigweed",50%
same,pest or weed control at 500 g/ha,"redroot pigweed; pre-emergence, Preemergence, 500 g ai/ha, visual rating, 0 to 100 scale (0 no effect, 100 complete control), read-out: Pigweed plant response rating",5%
same,pest or weed control at 2000 g/ha,"redroot pigweed; pre-emergence, Preemergence, 2000 g ai/ha, 0 to 100 scale, 0 no effect, 100 complete control, read-out: Pigweed plant response rating",35%
same,Surinam Grass plant response rating,"Surinam grass; Postemergence, scale 0 to 100",40
same,pest or weed control at 250 g/ha,"Surinam grass; Urochloa decumbens, post-emergence, 312 h, Postemergence, 250 g ai/ha, scale 0 to 100, 0 no effect, 100 complete control, read-out: Plant response rating, Surinam Grass",20%
same,pest or weed control at 125 g/ha,"Surinam grass; Urochloa decumbens, post-emergence, 312 h, postemergence, 125 g ai/ha, scale 0 to 100, read-out: Plant response rating, Surinam Grass",10%
same,pest or weed control at 62 g/ha,"Surinam grass; Urochloa decumbens, post-emergence, 312 h, postemergence, 62 g ai/ha, scale 0 to 100, read-out: Plant response rating, Surinam Grass",10%
same,pest or weed control at 250 g/ha,"woolly cupgrass; Eriochloa villosa, post-emergence, 312 h, Postemergence, 250 g ai/ha, scale 0 to 100, 0 no effect, 100 complete control, read-out: Plant response rating, Cupgrass, Woolly",80%
same,pest or weed control at 125 g/ha,"woolly cupgrass; Eriochloa villosa, post-emergence, 312 h, postemergence, 125 g ai/ha, scale 0 to 100, read-out: Plant response rating, Cupgrass, Woolly",60%
same,"Cupgrass, Woolly plant response rating","woolly cupgrass; Postemergence, scale 0 to 100",80
same,pest or weed control at 500 g/ha,"giant foxtail; post-emergence, Postemergence, 500 g ai/ha, 0 to 100 scale, 0 no effect, 100 complete control, read-out: Plant response rating, Foxtail, Giant",20%
same,pest or weed control at 2000 g/ha,"giant foxtail; post-emergence, Postemergence, 2000 g ai/ha, 0 to 100 scale, 0 no effect, 100 complete control, read-out: Plant response rating, Foxtail, Giant",20%
same,pest or weed control at 500 g/ha,"giant foxtail; pre-emergence, Preemergence, 500 g ai/ha, visual rating, 0 to 100 scale (0 no effect, 100 complete control), read-out: Foxtail, Giant plant response rating",0%
same,pest or weed control at 2000 g/ha,"giant foxtail; pre-emergence, Preemergence, 2000 g ai/ha, 0 to 100 scale, 0 no effect, 100 complete control, read-out: Foxtail, Giant plant response rating",0%
same,pest or weed control at 250 g/ha,"morningglory; Ipomoea, post-emergence, Postemergence, 250 g ai/ha, scale 0 to 100, 0 no effect, 100 complete control, read-out: Plant response rating, Morningglory",50%
same,pest or weed control at 125 g/ha,"morningglory; Ipomoea, post-emergence, postemergence, 125 g ai/ha, scale 0 to 100, read-out: Plant response rating, Morningglory",10%
same,pest or weed control at 62 g/ha,"morningglory; Ipomoea, post-emergence, postemergence, 62 g ai/ha, scale 0 to 100, read-out: Plant response rating, Morningglory",10%
same,Morningglory plant response rating,"morningglory; Postemergence, scale 0 to 100",50
same,pest or weed control at 500 g/ha,"barnyardgrass; post-emergence, Postemergence, 500 g ai/ha, 0 to 100 scale, 0 no effect, 100 complete control, read-out: Plant response rating, Barnyardgrass",20%
same,pest or weed control at 2000 g/ha,"barnyardgrass; post-emergence, Postemergence, 2000 g ai/ha, 0 to 100 scale, 0 no effect, 100 complete control, read-out: Plant response rating, Barnyardgrass",20%
same,pest or weed control at 500 g/ha,"barnyardgrass; pre-emergence, Preemergence, 500 g ai/ha, visual rating, 0 to 100 scale (0 no effect, 100 complete control), read-out: Barnyardgrass plant response rating",0%
same,pest or weed control at 2000 g/ha,"barnyardgrass; pre-emergence, Preemergence, 2000 g ai/ha, 0 to 100 scale, 0 no effect, 100 complete control, read-out: Barnyardgrass plant response rating",0%
same,Johnsongrass plant response rating,"johnsongrass; Postemergence, scale 0 to 100",10
same,pest or weed control at 250 g/ha,"johnsongrass; Sorghum halepense, post-emergence, Postemergence, 250 g ai/ha, scale 0 to 100, 0 no effect, 100 complete control, read-out: Plant response rating, Johnsongrass",5%
same,pest or weed control at 125 g/ha,"johnsongrass; Sorghum halepense, post-emergence, postemergence, 125 g ai/ha, scale 0 to 100, read-out: Plant response rating, Johnsongrass",0%
same,pest or weed control at 62 g/ha,"johnsongrass; Sorghum halepense, post-emergence, postemergence, 62 g ai/ha, scale 0 to 100, read-out: Plant response rating, Johnsongrass",0%
same,pest or weed control at 250 g/ha,"bermudagrass; Cynodon dactylon, post-emergence, 312 h, Postemergence, 250 g ai/ha, scale 0 to 100, read-out: Bermudagrass plant response rating",0%
same,pest or weed control at 500 g/ha,"bermudagrass; Cynodon dactylon, post-emergence, 312 h, Postemergence, 500 g ai/ha, scale 0 to 100, read-out: Bermudagrass plant response rating",10%
same,pest or weed control at 125 g/ha,"bermudagrass; Cynodon dactylon, post-emergence, 312 h, postemergence, 125 g ai/ha, scale 0 to 100, read-out: Plant response rating, Bermudagrass",0%
same,pest or weed control at 62 g/ha,"bermudagrass; Cynodon dactylon, post-emergence, 312 h, postemergence, 62 g ai/ha, scale 0 to 100, read-out: Plant response rating, Bermudagrass",0%
same,pest or weed control at 500 g/ha,"large crabgrass; post-emergence, Postemergence, 500 g ai/ha, 0 to 100 scale, 0 no effect, 100 complete control, read-out: Plant response rating, Crabgrass, Large",20%
same,pest or weed control at 2000 g/ha,"large crabgrass; post-emergence, Postemergence, 2000 g ai/ha, 0 to 100 scale, 0 no effect, 100 complete control, read-out: Plant response rating, Crabgrass, Large",30%
same,pest or weed control at 500 g/ha,"large crabgrass; pre-emergence, Preemergence, 500 g ai/ha, visual rating, 0 to 100 scale (0 no effect, 100 complete control), read-out: Crabgrass, Large plant response rating",0%
same,pest or weed control at 2000 g/ha,"large crabgrass; pre-emergence, Preemergence, 2000 g ai/ha, 0 to 100 scale, 0 no effect, 100 complete control, read-out: Crabgrass, Large plant response rating",0%
CCCCOc1cccc(NC(=O)c2cc(C(C)(C)C)nn2CC)c1 [Compound 137],Pigweed plant response rating,redroot pigweed; [1],90
same,"Plant response rating, Pigweed",redroot pigweed; [2],100
same,Pigweed plant response rating,redroot pigweed; [3],90
same,Pigweed plant response rating,redroot pigweed; [4],60
same,"Plant response rating (0 = no effect, 100 = complete control), Surinam Grass","Surinam grass; 62 g ai/ha, preemergence",0
same,"Plant response rating, Surinam Grass",Surinam grass; [5],10
same,Surinam Grass plant response rating,Surinam grass; [6],60
same,"Plant response rating (0 = no effect, 100 = complete control), Cupgrass, Woolly","woolly cupgrass; 62 g ai/ha, preemergence",0
same,"Plant response rating, Cupgrass, Woolly",woolly cupgrass; [5],0
same,"Plant response rating, Cupgrass, Woolly",woolly cupgrass; [7],5
same,"Cupgrass, Woolly plant response rating",woolly cupgrass; [6],40
same,"Foxtail, Giant plant response rating",giant foxtail; [1],20
same,"Plant response rating, Foxtail, Giant",giant foxtail; [2],30
same,"Foxtail, Giant plant response rating",giant foxtail; [8],50
same,"Foxtail, Giant plant response rating",giant foxtail; [3],80
same,"Plant response rating (0 = no effect, 100 = complete control), Morningglory","morningglory; 62 g ai/ha, preemergence",0
same,"Plant response rating, Morningglory",morningglory; [5],0
same,Morningglory plant response rating,morningglory; [6],60
same,Barnyardgrass plant response rating,barnyardgrass; [1],20
same,"Plant response rating, Barnyardgrass",barnyardgrass; [2],25
same,Barnyardgrass plant response rating,barnyardgrass; [8],30
same,Barnyardgrass plant response rating,barnyardgrass; [3],60
same,"Plant response rating (0 = no effect, 100 = complete control), Johnsongrass","johnsongrass; 62 g ai/ha, preemergence",0
same,"Plant response rating, Johnsongrass",johnsongrass; [5],5
same,Johnsongrass plant response rating,johnsongrass; [6],40
same,"Plant response rating (0 = no effect, 100 = complete control), Bermudagrass","bermudagrass; 62 g ai/ha, preemergence",50
same,"Plant response rating, Bermudagrass",bermudagrass; [5],100
same,"Plant response rating, Bermudagrass",bermudagrass; [7],100
same,Bermudagrass plant response rating,bermudagrass; [9],100
same,"Crabgrass, Large plant response rating",large crabgrass; [1],30
same,"Plant response rating, Crabgrass, Large",large crabgrass; [2],60
same,"Crabgrass, Large plant response rating",large crabgrass; [8],55
same,"Crabgrass, Large plant response rating",large crabgrass; [3],90
CCN(CC)C(=O)c1ccnc(NC(=O)c2cc(C(C)(C)C)nn2CC)c1 [Compound 153],Pigweed plant response rating,redroot pigweed; [1],95
same,"Plant response rating, Pigweed",redroot pigweed; [2],100
same,Pigweed plant response rating,redroot pigweed; [3],100
same,Pigweed plant response rating,redroot pigweed; [4],100
same,"Plant response rating, Surinam Grass",Surinam grass; [10],0
same,"Plant response rating, Surinam Grass",Surinam grass; [5],0
same,Surinam Grass plant response rating,Surinam grass; [6],100
same,"Plant response rating, Cupgrass, Woolly",woolly cupgrass; [10],0
same,"Plant response rating, Cupgrass, Woolly",woolly cupgrass; [5],0
same,"Plant response rating, Cupgrass, Woolly",woolly cupgrass; [7],0
same,"Cupgrass, Woolly plant response rating",woolly cupgrass; [6],60
same,"Foxtail, Giant plant response rating",giant foxtail; [1],20
same,"Plant response rating, Foxtail, Giant",giant foxtail; [2],90
same,"Foxtail, Giant plant response rating",giant foxtail; [8],15
same,"Foxtail, Giant plant response rating",giant foxtail; [3],60
same,"Plant response rating, Morningglory",morningglory; [10],0
same,"Plant response rating, Morningglory",morningglory; [5],0
same,Morningglory plant response rating,morningglory; [6],15
same,Barnyardgrass plant response rating,barnyardgrass; [1],75
same,"Plant response rating, Barnyardgrass",barnyardgrass; [2],100
same,Barnyardgrass plant response rating,barnyardgrass; [8],80
same,Barnyardgrass plant response rating,barnyardgrass; [3],90
same,"Plant response rating, Johnsongrass",johnsongrass; [10],0
same,"Plant response rating, Johnsongrass",johnsongrass; [5],15
same,Johnsongrass plant response rating,johnsongrass; [6],85
same,"Plant response rating, Bermudagrass","bermudagrass; 62 g ai/ha, preemergence, scale 0 to 100, 0 no effect, 100 complete control",70
same,"Plant response rating, Bermudagrass",bermudagrass; [5],95
same,"Plant response rating, Bermudagrass",bermudagrass; [7],95
same,Bermudagrass plant response rating,bermudagrass; [9],100
same,"Crabgrass, Large plant response rating",large crabgrass; [1],10
same,"Plant response rating, Crabgrass, Large",large crabgrass; [2],20
same,"Crabgrass, Large plant response rating",large crabgrass; [8],25
same,"Crabgrass, Large plant response rating",large crabgrass; [3],25
